Assays:
velvetleaf = assay: Test A pre-/postemergence greenhouse test; format: in vivo, Abutilon theophrasti; conditions: for Velvetleaf plant response rating: 0 to 100 scale; for Plant response rating, Velvetleaf: 0 to 100 scale where 0 is no effect and 100 is complete control
In short: (§1)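 Test compounds in non-phytotoxic solvent with surfactant were applied as a preemergence soil spray to seeded loam/sand pots and, concurrently, postemergence to plants at 2–10 cm, one- to two-leaf stage. About ten days in greenhouse, then injury visually rated against untreated controls.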

redroot pigweed = assay: Test A pre-/postemergence greenhouse test; format: in vivo, Amaranthus retroflexus; conditions: for Pigweed plant response rating: 0 to 100 scale
In short: as §1

barnyardgrass [1] = assay: Test C flooded paddy test; format: in vivo, Echinochloa crus-galli; conditions: Flood
In short: (§2)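 Greenhouse pots flooded to 3 cm above soil at time of treatment received compound via the water, which stayed at that level.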

barnyardgrass [2] = assay: Test A pre-/postemergence greenhouse test; format: in vivo, Echinochloa crus-galli; conditions: for Barnyardgrass plant response rating: 0 to 100 scale; for Plant response rating, Barnyardgrass: 0 to 100 scale where 0 is no effect and 100 is complete control
In short: as §1

crabgrass = assay: Test A pre-/postemergence greenhouse test; format: in vivo, Digitaria sanguinalis; conditions: for Crabgrass, Large plant response rating: 0 to 100 scale; for Plant response rating, Crabgrass, Large: 0 to 100 scale where 0 is no effect and 100 is complete control
In short: as §1

morningglory = assay: Test A pre-/postemergence greenhouse test; format: in vivo, Ipomoea spp.; conditions: for Morningglory plant response rating: 0 to 100 scale; for Plant response rating, Morningglory: 0 to 100 scale where 0 is no effect and 100 is complete control
In short: as §1

rice = assay: Test C flooded paddy test; format: in vivo, Oryza sativa; conditions: Flood
In short: as §2

corn = assay: Test A pre-/postemergence greenhouse test; format: in vivo, Zea mays; conditions: for Corn plant response rating: 0 to 100 scale; for Plant response rating, Corn: 0 to 100 scale where 0 is no effect and 100 is complete control
In short: as §1

giant foxtail = assay: Test A pre-/postemergence greenhouse test; format: in vivo, Setaria faberi; conditions: for Foxtail, Giant plant response rating: 0 to 100 scale; for Plant response rating, Foxtail, Giant: 0 to 100 scale where 0 is no effect and 100 is complete control
In short: as §1

duck salad = assay: Test C flooded paddy test; format: in vivo, Heteranthera limosa; conditions: Flood
In short: as §2

umbrella sedge = assay: Test C flooded paddy test; format: in vivo, Cyperus difformis; conditions: Flood
In short: as §2

wheat = assay: Test A pre-/postemergence greenhouse test; format: in vivo, Triticum aestivum; conditions: for Wheat plant response rating: 0 to 100 scale; for Plant response rating, Wheat: 0 to 100 scale where 0 is no effect and 100 is complete control
In short: as §1

[3] = Postemergence, 125 g ai/ha, 0 is no effect, 100 is complete control
[4] = Postemergence, 500 g ai/ha, 0 is no effect, 100 is complete control
[5] = Preemergence, 125 g ai/ha, 0 no effect, 100 complete control
[6] = 31 g ai/ha, scale 0 to 100 (0 no effect, 100 complete control)
[7] = 62 g ai/ha, scale 0 to 100, 0 no effect, 100 complete control, 13 to 15 days
[8] = 125 g ai/ha, scale 0 to 100, 0 no effect, 100 complete control, 13 to 15 days
[9] = 250 g ai/ha, scale 0 to 100, 0 no effect, 100 complete control, 13 to 15 days
[10] = 250 g ai/ha, scale 0 to 100 (0 no effect, 100 complete control)

`Cn1nc(C(F)(F)F)c(CS(=O)(=O)c2cc(F)cc[n+]2[O-])c1Cl` [Compound 41] was tested, and the “Velvetleaf plant response rating” value (velvetleaf; [3]) was 0, the “Velvetleaf plant response rating” value (velvetleaf; [4]) was 0 and the “Velvetleaf plant response rating” value (velvetleaf; [5]) was 0. The “Plant response rating, Velvetleaf” value (velvetleaf; Preemergence, 500 g ai/ha) was 0, the “Pigweed plant response rating” value (redroot pigweed; [3]) was 0 and the “Pigweed plant response rating” value (redroot pigweed; [4]) was 0. The “Pigweed plant response rating” value (redroot pigweed; [5]) was 0, the “Plant response rating, Pigweed” value (redroot pigweed; Preemergence, 500 g ai/ha, 0 to 100 scale where 0 is no effect and 100 is complete control) was 0 and the “Plant response rating, Barnyardgrass” value (barnyardgrass [1]; [6]) was 0. The “Plant response rating, Barnyardgrass” value (barnyardgrass [1]; [7]) was 0, the “Plant response rating, Barnyardgrass” value (barnyardgrass [1]; [8]) was 0 and the “Plant response rating, Barnyardgrass” value (barnyardgrass [1]; [9]) was 0. The “Barnyardgrass plant response rating” value (barnyardgrass [2]; [3]) was 0, the “Barnyardgrass plant response rating” value (barnyardgrass [2]; [4]) was 0 and the “Barnyardgrass plant response rating” value (barnyardgrass [2]; [5]) was 0. For the same compound, the “Plant response rating, Barnyardgrass” value (barnyardgrass [2]; Preemergence, 500 g ai/ha) was 60, the “Crabgrass, Large plant response rating” value (crabgrass; [3]) was 0 and the “Crabgrass, Large plant response rating” value (crabgrass; [4]) was 0. For the same compound, the “Crabgrass, Large plant response rating” value (crabgrass; [5]) was 0, the “Plant response rating, Crabgrass, Large” value (crabgrass; Preemergence, 500 g ai/ha) was 0 and the “Morningglory plant response rating” value (morningglory; [3]) was 0. For the same compound, the “Morningglory plant response rating” value (morningglory; [4]) was 0, the “Morningglory plant response rating” value (morningglory; [5]) was 0 and the “Plant response rating, Morningglory” value (morningglory; Preemergence, 500 g ai/ha) was 20. For the same compound, the “Plant response rating, Rice” value (rice; [6]) was 0, the “Plant response rating, Rice” value (rice; [7]) was 0 and the “Plant response rating, Rice” value (rice; [8]) was 0. The “Plant response rating, Rice” value (rice; [9]) was 15, the “Corn plant response rating” value (corn; [3]) was 0 and the “Corn plant response rating” value (corn; [4]) was 0. The “Corn plant response rating” value (corn; [5]) was 0, the “Plant response rating, Corn” value (corn; Preemergence, 500 g ai/ha) was 30 and the “Foxtail, Giant plant response rating” value (giant foxtail; [3]) was 0. For the same compound, the “Foxtail, Giant plant response rating” value (giant foxtail; [4]) was 0, the “Foxtail, Giant plant response rating” value (giant foxtail; [5]) was 0 and the “Plant response rating, Foxtail, Giant” value (giant foxtail; Preemergence, 500 g ai/ha) was 0. The “Plant response rating, Ducksalad” value (duck salad; [6]) was 75, the “Plant response rating, Ducksalad” value (duck salad; [7]) was 75 and the “Plant response rating, Ducksalad” value (duck salad; [8]) was 75. For the same compound, the “Plant response rating, Ducksalad” value (duck salad; [9]) was 80, the “Plant response rating, Sedge, Umbrella” value (umbrella sedge; [6]) was 80 and the “Plant response rating, Sedge, Umbrella” value (umbrella sedge; [7]) was 80. The “Plant response rating, Sedge, Umbrella” value (umbrella sedge; [8]) was 80, the “Plant response rating, Sedge, Umbrella” value (umbrella sedge; [9]) was 80 and the “Wheat plant response rating” value (wheat; [3]) was 0. The “Wheat plant response rating” value (wheat; [4]) was 0, the “Wheat plant response rating” value (wheat; [5]) was 0 and the “Plant response rating, Wheat” value (wheat; Preemergence, 500 g ai/ha) was 0.
`Cn1nc(C(F)(F)F)c(CS(=O)(=O)c2ccc(Br)c[n+]2[O-])c1OC(F)F` [Compound 13] was tested, and the “Velvetleaf plant response rating” value (velvetleaf; [3]) was 0, the “Velvetleaf plant response rating” value (velvetleaf; [4]) was 0 and the “Velvetleaf plant response rating” value (velvetleaf; [5]) was 0. The “Plant response rating, Velvetleaf” value (velvetleaf; Preemergence, 500 g ai/ha) was 0, the “Pigweed plant response rating” value (redroot pigweed; [3]) was 0 and the “Pigweed plant response rating” value (redroot pigweed; [4]) was 0. The “Plant response rating, Barnyardgrass” value (barnyardgrass [1]; [6]) was 0, the “Plant response rating, Barnyardgrass” value (barnyardgrass [1]; [7]) was 0 and the “Plant response rating, Barnyardgrass” value (barnyardgrass [1]; [8]) was 20. The “Plant response rating, Barnyardgrass” value (barnyardgrass [1]; [10]) was 80, the “Barnyardgrass plant response rating” value (barnyardgrass [2]; [3]) was 0 and the “Barnyardgrass plant response rating” value (barnyardgrass [2]; [4]) was 0. For the same compound, the “Barnyardgrass plant response rating” value (barnyardgrass [2]; [5]) was 50, the “Plant response rating, Barnyardgrass” value (barnyardgrass [2]; Preemergence, 500 g ai/ha) was 90 and the “Crabgrass, Large plant response rating” value (crabgrass; [3]) was 0. For the same compound, the “Crabgrass, Large plant response rating” value (crabgrass; [4]) was 30, the “Crabgrass, Large plant response rating” value (crabgrass; [5]) was 40 and the “Plant response rating, Crabgrass, Large” value (crabgrass; Preemergence, 500 g ai/ha) was 80. The “Morningglory plant response rating” value (morningglory; [3]) was 0, the “Morningglory plant response rating” value (morningglory; [4]) was 0 and the “Morningglory plant response rating” value (morningglory; [5]) was 0. For the same compound, the “Plant response rating, Morningglory” value (morningglory; Preemergence, 500 g ai/ha) was 0, the “Plant response rating, Rice” value (rice; [6]) was 0 and the “Plant response rating, Rice” value (rice; [7]) was 50. The “Plant response rating, Rice” value (rice; [8]) was 65, the “Plant response rating, Rice” value (rice; [10]) was 85 and the “Corn plant response rating” value (corn; [3]) was 0. For the same compound, the “Corn plant response rating” value (corn; [4]) was 0, the “Corn plant response rating” value (corn; [5]) was 0 and the “Plant response rating, Corn” value (corn; Preemergence, 500 g ai/ha) was 0. For the same compound, the “Foxtail, Giant plant response rating” value (giant foxtail; [3]) was 0, the “Foxtail, Giant plant response rating” value (giant foxtail; [4]) was 10 and the “Foxtail, Giant plant response rating” value (giant foxtail; [5]) was 50. For the same compound, the “Plant response rating, Foxtail, Giant” value (giant foxtail; Preemergence, 500 g ai/ha) was 70, the “Plant response rating, Ducksalad” value (duck salad; [6]) was 0 and the “Plant response rating, Ducksalad” value (duck salad; [7]) was 0. The “Plant response rating, Ducksalad” value (duck salad; [8]) was 0, the “Plant response rating, Ducksalad” value (duck salad; [10]) was 95 and the “Plant response rating, Sedge, Umbrella” value (umbrella sedge; [6]) was 0. The “Plant response rating, Sedge, Umbrella” value (umbrella sedge; [7]) was 0, the “Plant response rating, Sedge, Umbrella” value (umbrella sedge; [8]) was 20 and the “Plant response rating, Sedge, Umbrella” value (umbrella sedge; [10]) was 100. The “Wheat plant response rating” value (wheat; [3]) was 0, the “Wheat plant response rating” value (wheat; [4]) was 0 and the “Wheat plant response rating” value (wheat; [5]) was 0. For the same compound, the “Plant response rating, Wheat” value (wheat; Preemergence, 500 g ai/ha) was 0.

From patent US20100298141A1, “SUBSTITUTED PYRIDINE N-OXIDE HERBICIDES” (E. I. DU PONT DE NEMOURS AND COMPANY, priority 2007, published 2010)
